The target of data set [1] is T1, PRMT1 (Homo sapiens, UniProt Q99873).
T1 construct: made in house
As to the kind of experiment: IC50 assay, MTase-Glo Methyltransferase assay. The class given is biochemical. As for the experimental part: The efficacy of the peptoid inhibitors was probed using the MTase-Glo Methyltransferase assay kit. Various concentrations (0-1000 μM) of peptoid was incubated in assay buffer (20 mM Tris-HCl pH 8.0, 50 mM NaCl, 1 mM EDTA, 3 mM MgCl2, 0.1 mg/ml BSA, 1 mM DTT) at 37° C. for 10 min. Afterward, the inhibitor was allowed to interact with 200 nM PRMT1 for 15 min at 37° C. The reaction was catalyzed with 225 μM of AcH4-21 (a PRMT1 peptide substrate), continued for 15 min at 37° C., was quenched with the addition of 0.5% TFA (0.1% final concentration, 10 min, r.t.), followed by the addition of MTase-Glo Reagent to a final concentration of 1×. After 30-min incubation at r.t., MTase-Glo Detection Solution was added and incubated for 30 min at r.t. Luminescence signal was converted to product concentration using SAH standards (0-5 μM), following the above assay. Immediately afterwards, the luminescence signal was read with a BioTek Synergy 2 Multi-Mode Microplate Reader. IC50 values were determined by fitting the data to equation (2) using GraFit version 7.03. Fractional activity of PRMT=1/(1+([I]/IC50)) (2) where [I] is the inhibitor concentration and IC50 is the concentration of inhibitor resulting in 50% PRMT activity.
The IC50 value for the peptoid inhibitors were measured using the MTase-Glo Methyltransferase assay kit (Promega). The peptoid was incubated in assay buffer (20 mM Tris-HCl pH 8.0, 50 mM NaCl, 1 mM EDTA, 3 mM MgCl2, 0.1 mg/mL BSA, 1 mM DTT) and substrate (0-1000 μM) at either 37° C. (PRMT1) or 25° C. (PRMT5). After a pre-incubation of 10 minutes, 200 nM PRMT1 or PRMT5 was added to the assay before adding in the substrate, AcH4-21, at 225 μM. The reaction proceeded for 15 minutes before being quenched with 0.5% TFA (0.1% final concentration), vortexed, and incubated for an additional 10 minutes. To detect product formation, the MTase-Glo Reagent was added for 30 minutes at r.t., followed by addition of the MTase-Glo Detection solution for an additional 30 minutes. Finally, the luminescence signal was measured using a BioTek Synergy 2 Multi-Mode Microplate Reader. The values were converted to product concentration using a standard curve of S-adenosylhomocysteine (SAH; 0-5 μM). The IC50 values were determined using equation 1 and fit to a curve using GraFit 7.03. Fractional activity of PRMT=1/(1+([I]/IC50)) (2) IC50 is the concentration of inhibitor resulting in 50% PRMT activity and [I] is the inhibitor concentration. Cell Culture and Conditions

Data set [2] deals with HepaRG immortalized, terminally differentiated liver cells. The note with it: non-tumorigenic HepaRG; for growth over time course: 72 hour time course. The procedure:
(§1) MDA-MB-468 breast carcinoma cells (ATCC; HTB132), HCT116+/+p53 colon carcinoma cells were grown in DMEM supplemented in 5% FBS. HepaRG terminally differentiated liver cell line (Thermoscientific; HPRGC10) and HepaRG-Fucci cells were grown in Williams media supplemented with Glutamax and 5% FBS and normal Human Mammary Epithelial Cells (HMEC) (ATCC; PCS-600-010) were grown in Mammary epithelial basal medium (ATCC; PCS-600-030) supplemented with mammary epithelial cell growth kit (ATCC; PCS-600-040). Cells were recovered with 0.25% trypsin-EDTA, plated on cell culture treated plates and/or coverslips according to the experimental design and incubated overnight in 37° C. humidified CO2 incubator kept at 5% CO2 (800WJ; Thermoscientific). Cells were washed twice with sterile PBS before switching to serum free treatment media along with varying concentrations of the PRMT inhibitor compound (0-40 μM).
(§2) Cell viability and growth was assessed using the crystal violet assay as described by Oliver et al., J Cell Sci, 1989). […] Cells were fixed at each time point with 100% methanol and stained with 1% crystal violet in 0.01M borate buffer (pH 8.9). Absorbance of dye eluted in 1:1 (v/v) ethanol: 0.01M HCl was checked at 650 nm by microplate reader. The cell growth rate was calculated by the following formula: Cell growth rate (%)=(A650 at n hour/A650 0 h). Each condition was tested in triplicate and repeated three independent times.

In data set [3] the test system is Human Mammary Epithelial Cells (HMEC). The note with it: normal HMEC, 72 hour time course. The procedure:
as §1, §2

Data set [4] relates to caspase-3 activity in HepaRG cells. As to conditions: only at the highest dose. The procedure:
Caspase-3 activity assay was performed on extracted protein lysates using colorimetric caspase-3 activity assay (K106; Biovision) as per manufacturer's protocol. Briefly, 50 μL of extracted protein was plated in a UV compatible 96 well plate. DEVD-pNA substrate in prepared 1× buffer was added to each sample. The plate was shaken for 10 minutes and incubated at 37° C. in Biorad plate reader and read at 405 nm every 10 minutes for 2 hours.

Data set [5] addresses T1, PRMT1. Put plainly: Km assay, MTase-Glo Methyltransferase assay (peptoid as substrate). The class given is biochemical. The note with it: peptoid 0-1000 μM, 200 nM PRMT1. As for the experimental part: The kinetics of each peptoid were determined using the MTase-Glo Methyltransferase assay kit to monitor the conversion of S-adenosylmethionine (SAM) to S-adenosylhomocysteine (SAH). Briefly, various concentrations (0-1000 μM) of the peptoid in assay buffer (20 mM Tris-HCl pH 8.0, 50 mM NaCl, 1 mM EDTA, 3 mM MgCl2, 0.1 mg/ml BSA, 1 mM DTT) were incubated at 37° C. After 10 min, 200 nM PRMT1 was added to initiate the reaction. The reaction proceeded for 10 min at 37° C. until quenched with the addition of 0.5% TFA (0.1% final concentration, 10 min, r.t.) followed by the addition of MTase-Glo Reagent to a final concentration of 1×. After 30 min incubating at r.t, MTase-Glo Detection Solution was added and incubated for 30 min at r.t. Immediately afterwards, the luminescence signal was read with a BioTek Synergy 2 Multi-Mode Microplate Reader. Luminescence signal was converted to product concentration using SAH standards (0-5 μM), following the above assay. The initial rates were fitted into equation (1) using GraFit version 7.03. V=Vmax[S]/(Km+[S]) (1) IC50 Assay

Where [6] appears, read: listed as unacetylated H4-16 warhead chloracetamidine peptoid.
Where [7] appears, read: histone H4 peptoids, SAM 40 μM, substrate AcH4-21 225 μM, read-out: IC50.

Like-named read-outs stand apart in the source and are kept apart here. Starred links: 1 amine or outer side, 2 acyl side, 3 side chain; linkers in the order of their positions; H or OH if unused. Non-standard residues stand in square brackets, D forms with d. Residues, ends and D or L forms follow the SMILES beside them. Gly(N-(CH2)3-guanidino) = N=C(N)NCCCNCC(=O)O; X1 = N=C(CCl)NCCCN(CC(=O)[*:2])[*:1]; Gly(N-CH2CH2OH) = O=C(O)CNCCO; Nleu = CC(C)CNCC(=O)O; Nlys = NCCCCNCC(=O)O; Sar = CNCC(=O)O

T1 sequence (Q99873 1-353 isoform Q99873-3, species assumed): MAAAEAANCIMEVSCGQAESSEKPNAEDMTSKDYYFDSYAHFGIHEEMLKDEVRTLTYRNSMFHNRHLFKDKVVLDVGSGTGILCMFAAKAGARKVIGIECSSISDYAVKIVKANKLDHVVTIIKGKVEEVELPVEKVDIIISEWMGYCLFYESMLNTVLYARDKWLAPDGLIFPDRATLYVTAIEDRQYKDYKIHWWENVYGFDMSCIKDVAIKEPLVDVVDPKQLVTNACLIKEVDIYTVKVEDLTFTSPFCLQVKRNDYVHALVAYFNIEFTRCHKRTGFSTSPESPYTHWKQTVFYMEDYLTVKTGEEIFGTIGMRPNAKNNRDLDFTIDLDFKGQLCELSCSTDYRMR

For the molecule `CC(=O)N(CCO)CC(=O)NCC(=O)N(CCCNC(=N)N)CC(=O)NCC(=O)N(CCCCN)CC(=O)NCC(=O)NCC(=O)N(CCCCN)CC(=O)NCC(=O)N(CC(=O)NCC(=O)N(CCCCN)CC(=O)NCC(=O)NCC(=O)N(C)CC(=O)N(CCCCN)CC(N)=O)CC(C)C` [AcH4-16 peptoid] (Ac-[Gly(N-CH2CH2OH)]G[Gly(N-(CH2)3-guanidino)]G[Nlys]GG[Nlys]G[Nleu]G[Nlys]GG[Sar][Nlys]-NH2), on PRMT1 [1], the IC50 – broadly, the midpoint of a concentration-inhibition curve – came out at 916 ± 19.5 µM.
Turning to `CC(C)CN(CC(=O)NCC(=O)N(CCCCN)CC(=O)NCC(=O)NCC(=O)N(C)CC(=O)N(CCCCN)CC(N)=O)C(=O)CNC(=O)CN(CCCCN)C(=O)CNC(=O)CNC(=O)CN(CCCCN)C(=O)CNC(=O)CN(CCCNC(=N)CCl)C(=O)CNC(=O)CNCCO` [Peptoid P2] (H-[Gly(N-CH2CH2OH)]G[X1]G[Nlys]GG[Nlys]G[Nleu]G[Nlys]GG[Sar][Nlys]-NH2), the cell viability entry in data set [2] (0-40 μM, 48 hours) is on record as “no prominent change”. Besides, the “growth over time course” value is on record as “no detectable effect in growth” in data set [2], “No detectable effect in growth” in data set [2] (setting [6]), “no detectable effect in growth” in data set [3] and “No detectable effect in growth” in data set [3] (setting [6]). In addition, the figures for the caspase-3 activity result in data set [4] and in data set [4] (setting [6]) were “minimal activation of caspase-3” and “Only minimal activation of caspase-3”, respectively.
In the case of `N=C(N)NCCCN(CC(=O)NCC(=O)N(CCCCN)CC(=O)NCC(=O)NCC(=O)N(CCCCN)CC(N)=O)C(=O)CNC(=O)CNCCO` [Peptoid H4-8] (H-[Gly(N-CH2CH2OH)]G[Gly(N-(CH2)3-guanidino)]G[Nlys]GG[Nlys]-NH2), the IC50 at PRMT1 [1] (setting [7]) is more than 1000 µM. On PRMT1 [1] (up to 1000 μM), the “inhibition of PRMT1” value is “did not show any inhibition up to 1000 μM”.
As to `CC(=O)N(CCO)CC(=O)NCC(=O)N(CCCNC(=N)N)CC(=O)NCC(=O)N(CCCCN)CC(=O)NCC(=O)NCC(=O)N(CCCCN)CC(=O)NCC(=O)N(CC(=O)NCC(=O)N(CCCCN)CC(=O)NCC(N)=O)CC(C)C` [AcH4-13] (Ac-[Gly(N-CH2CH2OH)]G[Gly(N-(CH2)3-guanidino)]G[Nlys]GG[Nlys]G[Nleu]G[Nlys]G-NH2), the “modification / product turnover as PRMT1 substrate” value on PRMT1 [5] was “low product turnover”. The 50% inhibitory concentration (IC50) on PRMT1 [1] was more than 1000 µM.
Turning to `CC(=O)N(CCO)CC(=O)NCC(=O)N(CCCNC(=N)N)CC(=O)NCC(=O)N(CCCCN)CC(=O)NCC(=O)NCC(=O)N(CCCCN)CC(N)=O` [AcH4-8] (Ac-[Gly(N-CH2CH2OH)]G[Gly(N-(CH2)3-guanidino)]G[Nlys]GG[Nlys]-NH2), the “modification / product turnover as PRMT1 substrate” value on PRMT1 [5] is recorded as “low product turnover”. On PRMT1 [1] (setting [7]), the 50% inhibitory concentration (IC50) is more than 1000 µM.
